From BindingDB's records for doi:10.1016/j.bmc.2019.115091 (Kyowa Kirin, 2019)

Assay: Inhibition of chemR23 expressed in human CAL1 cells assessed as reduction in chemerin-induced chemotaxis incubated for 4 hrs by cell counting based CellTiter-Glo assay

CCCCN(c1nc2cc(C(=O)NC)ccc2o1)[C@H](C)c1ccc(-c2ccccc2-c2nnn[nH]2)cc1
IC50: 380 nM
